Values quoted from earlier work, collected in patent publication US20040258731A1, “Preparation approriate for cartilage tissue formation” (priority 2001, published 2004).

Assays:
articular cartilage [1] = system: articular cartilage
articular cartilage [2] = conditions: experimental arthritis model animals, intraarticular administration

Question: For TGF-β, which synovitis (articular cartilage [1]; in vivo) is on record?
Answer: marked synovitis

Question: Which “arthritis-induced loss of proteoglycans in articular cartilage” value (articular cartilage [2]) does the source give for “TGF-β1: an isoform of TGF-β (Transforming Growth Factor β)” here?
Answer: suppresses arthritis-induced loss of proteoglycans in articular cartilage

Question: What about the chondrogenesis (articular cartilage [1]; intraarticularly administered) of the same substance?
Answer: promote chondrogenesis
